Target: T1, Squalene synthase (Rattus norvegicus, UniProt Q02769)
T1 sequence (Q02769 whole entry): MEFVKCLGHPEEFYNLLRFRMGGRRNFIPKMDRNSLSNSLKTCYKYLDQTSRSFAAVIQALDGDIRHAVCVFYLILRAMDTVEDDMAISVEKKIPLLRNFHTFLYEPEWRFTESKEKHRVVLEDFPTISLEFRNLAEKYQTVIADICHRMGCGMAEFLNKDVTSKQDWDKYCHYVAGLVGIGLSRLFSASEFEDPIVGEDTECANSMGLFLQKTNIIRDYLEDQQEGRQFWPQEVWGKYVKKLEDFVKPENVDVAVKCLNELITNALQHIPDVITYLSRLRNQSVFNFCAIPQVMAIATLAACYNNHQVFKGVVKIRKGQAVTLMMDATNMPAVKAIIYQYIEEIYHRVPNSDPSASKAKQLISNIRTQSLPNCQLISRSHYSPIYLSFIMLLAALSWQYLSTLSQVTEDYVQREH
Test: In vitro inhibitory activity against rat liver squalene synthase

SMILES | IC50
O=C(O)C1OC(CCCCCCc2ccccc2)OC(C(=O)O)C1(O)C(=O)O (configuration not stated) | 8 µM
C=C(CCC12CCC(C(=O)O)(O1)C(O)(C(=O)O)C(C(=O)O)O2)[C@@H](OC(C)=O)[C@H](C)Cc1ccccc1 (some centres not stated) | 0.057 µM

Reference: ChEMBL document CHEMBL1127965, “Synthesis of novel monocyclic squalestatin analogues as potential inhibitors of squalene synthase” (Bioorg Med Chem Lett, 1994)
